Laboratory results published in patent US8258154B2, “Bicyclic heteroaryl inhibitors of PDE4” (Kalypsys Inc., priority 2006, dated 2012).

System: Lacrimal gland inflammation-induced dry eye
Test: Lacrimal gland inflammation-induced dry eye in rabbits (corneal staining, tear breakup time)
Format: in vivo
Settings: rabbit, topical ocular BID, percent concentration 1
Excerpt: A more detailed description of the assay used herein may be found in Naglehout, T J et al. 2005, “Preservation of Tear Film Integrity and Inhibition of Corneal Injury by Dexamethasone in a Rabbit Model of Lacrimal Gland Inflammation-Induced Dry Eye,” J. Ocular Pharm. Ther., 21:2. 139-148, the disclosure of which is hereby incorporated by reference as if written herein in its entirety. Rabbits (n=4/group) were randomized into treatment groups and dosed topically BID with maxidex vehicle or test drug beginning one day prior to initiation of dry eye. Each rabbit received bilateral lacrimal gland injections of saline or ConA (300 μg/30 μl) and topical ocular dosing was continued BID throughout the study. Desiccation was initiated 1-2 hours following lacrimal gland injection by placing conscious rabbits in the environmental chamber (10-15% humidity/72° F.). […] Absorbance of the extracted dye was determined at 660 nm. TBUT was quantified in a separate group of treated animals. TBUT was determined by instilling 5 μL sodium fluorescein into the cul de sac and manually blinking the lids to distribute the fluorescein within the tear film. Under slit lamp observation, the eye was held open and the time whereby one or more black spots or streaks appeared in the precorneal tear film was recorded. […]

COc1ccc2c(Nc3c(Cl)cncc3Cl)cc(=O)[nH]c2c1OC1CCCC1 [Example 1, 8-(Cyclopentyloxy)-4-(3,5-dichloropyridin-4-ylamino)-7-methoxyquinolin-2(1H)-one]
Activity at Percent Concentration Tested 1: Inac-
